Results: PubChem BioAssay AID1963846 (Molecular Pharmacology Branch, DTP, NCI, 2024)
Several values for one entry are separate records, joined by “and”; a condition that tells them apart may be missing. Identical values can stand only once.

System: 454973-116-R2-J3-PDC complex spheroid viability
Assay: Anticancer human tumor 454973-116-R2-J3-PDC patient-derived pancreatic carcinoma cell line growth inhibition [POLQ]
Conditions: for viability, T/C: stronger effect = lower value
Experimental: Multicellular complex tumor spheroid response to Polymerase (POL) inhibitors (novobiocin, ART-558, RP6685) in combination with a variety of drugs and investigational agents in selected tumor cell lines
The POL inhibitors (novobiocin, ART-558, and RP6685) were evaluated both individually and in combination with standard of care and investigational anticancer small molecules within a complex spheroid model of solid tumors. . Complex spheroids include a stromal component modeled by human endothelial cells (HUVEC) and fibroblasts modeled by human mesenchymal stem cells (MSCs). The concentration ranges selected for each drug and investigational agent were based upon clinically achievable concentrations if the clinical Cmax of the agent was known.
Compounds. The drugs and investigational agents: novobiocin (NSC847541), ART-558 (NSC835418), RP-6685 (NSC848927), peposertib (NSC802822), ceralasertib (NSC780249), elimusertib (NSC800525), camonsertib (NSC841442), AZD-1390 (NSC803789), olaparib (NSC753686), talazoparib (NSC767125), rucaparib (NSC756644), sotorasib (NSC818433), MRTX-1133 (NSC836407), SN-38 (NSC673596), topotecan (NSC609699), epotoside (NSC141540), doxorubicin (NSC123127), gemcitabine (NSC613327), 5-fluorouracil (NSC19893), paclitaxel (NSC125973), vemurafenib (NSC761431), MSA-2 (NSC828583), SN-011 (NSC837082), adavosertib (NSC754352), prexasertib (NSC758257), carboplatin (NSC241240) and oxaliplatin (NSC266046), were obtained from the National Cancer Institute (NCI) Developmental Therapeutics Program Chemical Repository (21). The FDA-approved anticancer drug set is available from the Developmental Therapeutics Program at https://dtp.cancer.gov/organization/dscb/obtaining/. […] The stock solutions were prepared in dimethyl sulfoxide (DMSO, Sigma-Aldrich, St. Louis, MO, cat. D2650), except for the platinum compounds which were prepared in saline (Quality Biological, Gaithersburg, MD, cat. 114-055-101), at 800-fold the tested concentration and stored at -70 degrees C prior to their use. All drugs and investigational agents were tested over a range starting from a high concentration at or near the clinical Cmax and decreasing in half-log increments. If the clinical Cmax for an agent had not been determined, the highest concentration tested was 10 microM, except for SN-38, which was tested at a high concentration of 1 microM.
Cell Culture. All cells were maintained in an incubator at 37 degrees C and 5% CO2 with 95% humidity. The PDC lines were cultured according to standard operating procedures established by the NCI PDMR (https://pdmr.cancer.gov). Table 3 of the manuscript, lists the cell lines along with the number of the three cell types plated to form the mct-spheroids and media for tumor cell growth. After thawing, all PDC lines, except 997537-175-T-J1-PDC and 415267-285-R-J2-PDC, were cultured in Matrigel-coated flasks prepared with a working solution of 1X Ham's F-12 nutrient mix, without supplementation (Thermo Fisher Scientific, cat. 11765054), 100 U/mL penicillin-streptomycin (Thermo Fisher Scientific, cat. 15140122), and 2.5% Matrigel (Corning Inc., Corning, NY, cat. 354248) for the first three passages. The two PDC lines 997537-175-T-J1-PDC and 415267-285-R-J2-PDC were cultured on uncoated flasks. The 857933-349-R-J2-PDC line was cultured in 6C/Colon 1B media containing advanced DMEM/F-12 (Thermo Fisher Scientific, cat. 12634028), 10 mM HEPES (Thermo Fisher Scientific, cat. 15630080), 1X GlutaMAX supplement (Thermo Fisher Scientific, cat. 35050061), 0.1 mg/mL primocin (InvivoGen, San Diego, CA, cat. ant-pm-2), 10% defined fetal bovine serum, heat inactivated (HyClone Laboratories Inc., Logan, UT, cat. SH30070.03HI), 50% L-WRN conditioned media (ATCC, cat. CRL-3276), 1.25 mM N-Acetyl-L-cysteine (Sigma-Aldrich, cat. A9165), 10 mM nicotinamide (Sigma-Aldrich, cat. N0636), 1X B-27 supplement (Thermo Fisher Scientific, cat. 17504044), 1X N-2 supplement (Thermo Fisher Scientific, cat. […]
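Further: spheroids exposed to drugs for seven days before measurement.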
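Wherever viability, T/C is given: percent viability relative to DMSO vehicle control wells taken as 100%.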

Q: Which results are given for `CC[C@@]1(O)C(=O)OCc2c1cc1n(c2=O)Cc2cc3c(CN(C)C)c(O)ccc3nc2-1`?
A: viability, T/C (compound 0.000316 µM): 120% and 108% and 112%; viability, T/C (compound 0.001 µM): 101% and 93.5% and 105%; viability, T/C (compound 0.00316 µM): 97% and 95.4% and 103%; viability, T/C (compound 0.01 µM): 81.7% and 76.8% and 84.1%; viability, T/C (compound 0.0316 µM): 20% and 13.8% and 24.2%; viability, T/C (compound 0.1 µM): 17.1% and 10.5% and 14.8%; IC50 (curve of compound): 0.0182 µM and 0.0163 µM and 0.0193 µM

Q: For `Nc1ccn(C2OC(CO)C(O)C2(F)F)c(=O)n1` (stereo not drawn) + Cc1cccc(N(C)C(=O)C2C(O)CCN2c2nc(C)cc(C(F)(F)F)c2C#N)c1, which IC50 (curve of first compound, second compound 0.0316 µM) is on record?
A: < 0.0316 µM

Q: And the IC50 (curve of first compound, second compound 0.1 µM)?
A: < 0.0316 µM

Q: And the IC50 (curve of first compound, second compound 0.316 µM)?
A: < 0.0316 µM

Q: What about the IC50 (curve of first compound, second compound 1 µM) of the same molecule?
A: < 0.0316 µM

Q: What about the IC50 (curve of first compound, second compound 3.16 µM) of the same molecule?
A: < 0.0316 µM

Q: What about the IC50 (curve of first compound, second compound 10 µM) of the same molecule?
A: < 0.0316 µM

Q: And the viability, T/C (second compound 0.0316 µM, first compound 0.0316 µM)?
A: 13.4%

Q: And the viability, T/C (second compound 0.0316 µM, first compound 0.1 µM)?
A: 13.4%

Q: What about the viability, T/C (second compound 0.0316 µM, first compound 0.316 µM) of the same molecule?
A: 14.2%

Q: What about the viability, T/C (second compound 0.0316 µM, first compound 1 µM) of the same molecule?
A: 12.5%

Q: And the viability, T/C (second compound 0.0316 µM, first compound 3.16 µM)?
A: 12.3%

Q: And the viability, T/C (second compound 0.0316 µM, first compound 10 µM)?
A: 12.7%

Q: What about the viability, T/C (second compound 0.1 µM, first compound 0.0316 µM) of the same molecule?
A: 16.2%

Q: What about the viability, T/C (second compound 0.1 µM, first compound 0.1 µM) of the same molecule?
A: 11.9%

Q: What about the viability, T/C (second compound 0.1 µM, first compound 0.316 µM) of the same molecule?
A: 13.7%

Q: And the viability, T/C (second compound 0.1 µM, first compound 1 µM)?
A: 15.5%

Q: And the viability, T/C (second compound 0.1 µM, first compound 3.16 µM)?
A: 13.5%

Q: What about the viability, T/C (second compound 0.1 µM, first compound 10 µM) of the same molecule?
A: 13.9%

Q: What about the viability, T/C (second compound 0.316 µM, first compound 0.0316 µM) of the same molecule?
A: 15.1%

Q: And the viability, T/C (second compound 0.316 µM, first compound 0.1 µM)?
A: 13.8%

Q: What about the viability, T/C (second compound 0.316 µM, first compound 0.316 µM) of the same molecule?
A: 14.2%

Q: And the viability, T/C (second compound 0.316 µM, first compound 1 µM)?
A: 14.2%

Q: What about the viability, T/C (second compound 0.316 µM, first compound 3.16 µM) of the same molecule?
A: 13.6%

Q: And the viability, T/C (second compound 0.316 µM, first compound 10 µM)?
A: 12.8%

Q: What about the viability, T/C (second compound 1 µM, first compound 0.0316 µM) of the same molecule?
A: 14.1%

Q: What about the viability, T/C (second compound 1 µM, first compound 0.1 µM) of the same molecule?
A: 11.7%

Q: What about the viability, T/C (second compound 1 µM, first compound 0.316 µM) of the same molecule?
A: 13.9%

Q: What about the viability, T/C (second compound 1 µM, first compound 1 µM) of the same molecule?
A: 14.6%

Q: And the viability, T/C (second compound 1 µM, first compound 3.16 µM)?
A: 12.5%

Q: What about the viability, T/C (second compound 1 µM, first compound 10 µM) of the same molecule?
A: 11.8%

Q: What about the viability, T/C (second compound 3.16 µM, first compound 0.0316 µM) of the same molecule?
A: 16.9%

Q: What about the viability, T/C (second compound 3.16 µM, first compound 0.1 µM) of the same molecule?
A: 13.5%

Q: What about the viability, T/C (second compound 3.16 µM, first compound 0.316 µM) of the same molecule?
A: 14.8%

Q: And the viability, T/C (second compound 3.16 µM, first compound 1 µM)?
A: 13.8%

Q: And the viability, T/C (second compound 3.16 µM, first compound 3.16 µM)?
A: 12.5%

Q: And the viability, T/C (second compound 3.16 µM, first compound 10 µM)?
A: 14%

Q: And the viability, T/C (second compound 10 µM, first compound 0.0316 µM)?
A: 13.6%

Q: And the viability, T/C (second compound 10 µM, first compound 0.1 µM)?
A: 14.2%

Q: What about the viability, T/C (second compound 10 µM, first compound 0.316 µM) of the same molecule?
A: 17.1%

Q: And the viability, T/C (second compound 10 µM, first compound 1 µM)?
A: 14.2%

Q: And the viability, T/C (second compound 10 µM, first compound 3.16 µM)?
A: 13.8%

Q: What about the viability, T/C (second compound 10 µM, first compound 10 µM) of the same molecule?
A: 11.9%

Q: How did the viability, T/C (compound 0.0316 µM) turn out when `O=C(Nc1ccc(O)c(NS(=O)(=O)c2ccc(F)cc2)c1)c1ccc(-c2ccccc2)cc1` was run?
A: 103% and 108% and 98.8%

Q: What about the viability, T/C (compound 0.1 µM) of the same molecule?
A: 104% and 96.5% and 103%

Q: And the viability, T/C (compound 0.316 µM)?
A: 100% and 110% and 106%

Q: And the viability, T/C (compound 1 µM)?
A: 94% and 101% and 106%

Q: And the viability, T/C (compound 3.16 µM)?
A: 96.4% and 116% and 115%

Q: And the viability, T/C (compound 10 µM)?
A: 87.7% and 89.7% and 98%

Q: And the IC50 (curve of compound)?
A: > 10 µM

Q: How did the viability, T/C (compound 0.0316 µM) turn out when `COc1cc(C2c3cc4c(cc3C(OC3OC5COC(C)OC5C(O)C3O)C3COC(=O)C23)OCO4)cc(OC)c1O` (stereo not drawn) was run?
A: 102% and 100% and 103%

Q: What about the viability, T/C (compound 0.1 µM) of the same molecule?
A: 94.6% and 100% and 97.6%

Q: And the viability, T/C (compound 0.316 µM)?
A: 87.3% and 85.4% and 94.8%

Q: And the viability, T/C (compound 1 µM)?
A: 64.4% and 47.4% and 68.4%

Q: And the viability, T/C (compound 3.16 µM)?
A: 27% and 15.3% and 23.4%

Q: And the viability, T/C (compound 10 µM)?
A: 11% and 6.79% and 10.2%

Q: And the IC50 (curve of compound)?
A: 1.53 µM and 0.921 µM and 1.6 µM
